Patent US11684607B2, “Secnidazole for use in the treatment of bacterial vaginosis” (priority 2014, dated 2023)

Test system: bacterial vaginosis
Experiment: Telephone diary questionnaire on vaginal discharge and odor (five point scale), mITT population
Assay type: in vivo, human
Details: 2 g

Cc1ncc([N+](=O)[O-])n1CC(C)O (centres unmarked) [SYM-1219, 1-(2-hydroxypropyl)-2-methyl-5-nitromidazole]
Odor 3 points (Moderately Abnormal): number of women (Day 4): 6 | Odor 3 points (Moderately Abnormal): proportion of women (Day 4): 11% | Odor 4 points (Severely Abnormal): number of women (Day 4): 4 | Odor 4 points (Severely Abnormal): proportion of women (Day 4): 7% | Odor 5 points (Very Severely Abnormal): number of women (Day 4): 0 | Odor 5 points (Very Severely Abnormal): proportion of women (Day 4): 0% | Discharge 1 point (Normal/Not an Issue): number of women (Day 5): 21 | Discharge 1 point (Normal/Not an Issue): proportion of women (Day 5): 43% | Discharge 2 points (Mildly Abnormal): number of women (Day 5): 17 | Discharge 2 points (Mildly Abnormal): proportion of women (Day 5): 35% | Discharge 3 points (Moderately Abnormal): number of women (Day 5): 4 | Discharge 3 points (Moderately Abnormal): proportion of women (Day 5): 8% | Discharge 4 points (Severely Abnormal): number of women (Day 5): 6 | Discharge 4 points (Severely Abnormal): proportion of women (Day 5): 12% | Discharge 5 points (Very Severely Abnormal): number of women (Day 5): 1 | Discharge 5 points (Very Severely Abnormal): proportion of women (Day 5): 2% | Odor 1 point (Normal/Not an Issue): number of women (Day 5): 28 | Odor 1 point (Normal/Not an Issue): proportion of women (Day 5): 58% | Odor 2 points (Mildly Abnormal): number of women (Day 5): 12 | Odor 2 points (Mildly Abnormal): proportion of women (Day 5): 25% | Odor 3 points (Moderately Abnormal): number of women (Day 5): 5 | Odor 3 points (Moderately Abnormal): proportion of women (Day 5): 10% | Odor 4 points (Severely Abnormal): number of women (Day 5): 3 | Odor 4 points (Severely Abnormal): proportion of women (Day 5): 6% | Odor 5 points (Very Severely Abnormal): number of women (Day 5): 0 | Odor 5 points (Very Severely Abnormal): proportion of women (Day 5): 0% | Discharge 1 point (Normal/Not an Issue): number of women (Day 6): 22 | Discharge 1 point (Normal/Not an Issue): proportion of women (Day 6): 47% | Discharge 2 points (Mildly Abnormal): number of women (Day 6): 15 | Discharge 2 points (Mildly Abnormal): proportion of women (Day 6): 32% | Discharge 3 points (Moderately Abnormal): number of women (Day 6): 7 | Discharge 3 points (Moderately Abnormal): proportion of women (Day 6): 15% | Discharge 4 points (Severely Abnormal): number of women (Day 6): 2 | Discharge 4 points (Severely Abnormal): proportion of women (Day 6): 4% | Discharge 5 points (Very Severely Abnormal): number of women (Day 6): 1 | Discharge 5 points (Very Severely Abnormal): proportion of women (Day 6): 2% | Odor 1 point (Normal/Not an Issue): number of women (Day 6): 29 | Odor 1 point (Normal/Not an Issue): proportion of women (Day 6): 62% | Odor 2 points (Mildly Abnormal): number of women (Day 6): 12 | Odor 2 points (Mildly Abnormal): proportion of women (Day 6): 26% | Odor 3 points (Moderately Abnormal): number of women (Day 6): 5 | Odor 3 points (Moderately Abnormal): proportion of women (Day 6): 11% | Odor 4 points (Severely Abnormal): number of women (Day 6): 1 | Odor 4 points (Severely Abnormal): proportion of women (Day 6): 2% | Odor 5 points (Very Severely Abnormal): number of women (Day 6): 0 | Odor 5 points (Very Severely Abnormal): proportion of women (Day 6): 0% | Discharge 1 point (Normal/Not an Issue): number of women (Day 7): 24 | Discharge 1 point (Normal/Not an Issue): proportion of women (Day 7): 55% | Discharge 2 points (Mildly Abnormal): number of women (Day 7): 14 | Discharge 2 points (Mildly Abnormal): proportion of women (Day 7): 32% | Discharge 3 points (Moderately Abnormal): number of women (Day 7): 6 | Discharge 3 points (Moderately Abnormal): proportion of women (Day 7): 14% | Discharge 4 points (Severely Abnormal): number of women (Day 7): 0 | Discharge 4 points (Severely Abnormal): proportion of women (Day 7): 0% | Discharge 5 points (Very Severely Abnormal): number of women (Day 7): 0 | Discharge 5 points (Very Severely Abnormal): proportion of women (Day 7): 0% | Odor 1 point (Normal/Not an Issue): number of women (Day 7): 33 | Odor 1 point (Normal/Not an Issue): proportion of women (Day 7): 75% | Odor 2 points (Mildly Abnormal): number of women (Day 7): 7 | Odor 2 points (Mildly Abnormal): proportion of women (Day 7): 16% | Odor 3 points (Moderately Abnormal): number of women (Day 7): 4 | Odor 3 points (Moderately Abnormal): proportion of women (Day 7): 9% | Odor 4 points (Severely Abnormal): number of women (Day 7): 0 | Odor 4 points (Severely Abnormal): proportion of women (Day 7): 0% | Odor 5 points (Very Severely Abnormal): number of women (Day 7): 0 | Odor 5 points (Very Severely Abnormal): proportion of women (Day 7): 0% | Discharge 1 point (Normal/Not an Issue): number of women (EOS): 36 | Discharge 1 point (Normal/Not an Issue): proportion of women (EOS): 68% | Discharge 2 points (Mildly Abnormal): number of women (EOS): 9 | Discharge 2 points (Mildly Abnormal): proportion of women (EOS): 17% | Discharge 3 points (Moderately Abnormal): number of women (EOS): 4 | Discharge 3 points (Moderately Abnormal): proportion of women (EOS): 8% | Discharge 4 points (Severely Abnormal): number of women (EOS): 3 | Discharge 4 points (Severely Abnormal): proportion of women (EOS): 6% | Discharge 5 points (Very Severely Abnormal): number of women (EOS): 1 | Discharge 5 points (Very Severely Abnormal): proportion of women (EOS): 2% | Odor 1 point (Normal/Not an Issue): number of women (EOS): 36 | Odor 1 point (Normal/Not an Issue): proportion of women (EOS): 69% | Odor 2 points (Mildly Abnormal): number of women (EOS): 7 | Odor 2 points (Mildly Abnormal): proportion of women (EOS): 13% | Odor 3 points (Moderately Abnormal): number of women (EOS): 9 | Odor 3 points (Moderately Abnormal): proportion of women (EOS): 17% | Odor 4 points (Severely Abnormal): number of women (EOS): 0 | Odor 4 points (Severely Abnormal): proportion of women (EOS): 0% | Odor 5 points (Very Severely Abnormal): number of women (EOS): 0 | Odor 5 points (Very Severely Abnormal): proportion of women (EOS): 0%
